Where two headings read alike, the source gives them in different places.
Key:
[1] = test system: KARPAS299; assay: cells; parameters: CellTiter-Glo viability of fusion-positive human cancer cell lines; details: Homo sapiens, KARPAS-299, 72 h
[2] = test system: KM12; assay: cells; parameters: CellTiter-Glo viability of fusion-positive human cancer cell lines; details: Homo sapiens, KM12, 72 h
[3] = in vitro; parameters: CellTiter-Glo viability of parental Ba/F3 cells with IL-3 (counter-screen); details: mouse, parental ba/f3 cells +il-3; with IL-3; read-out: IC50 parental Ba/F3 (+IL-3)
Description: To identify drugs that can overcome these mutations, we screened our focused 90-inhibitor library using Ba/F3 cells expressing EML4-ALK I1171N + F1174I and I1171N + L1198H. At a concentration of 50 nM, gilteritinib suppressed the viability of both wild-type (WT) and compound mutant Ba/F3 cells (Fig. 1a). Since gilteritinib has reported as multi-kinase inhibitor, we first evaluated whether the ALK inhibitory efficacy of gilteritinib is driven by on-target activity or not. As a result of western blot analysis, gilteritinib suppressed the autophosphorylation of ALK in EML4-ALK-expressing Ba/F3 cells (Fig. 1b and Supplementary Fig. 1). […] As well as Ba/F3 cell model, we verified the activity of gilteritinib to H3122 cell line that is EML4-ALK-positive NSCLC cells. […] Then, the inhibitory concentration of gilteritinib is matched between ALK phosphorylation and its downstream signals. […] Further, using the phosphoproteomics data, kinase substrate-enrichment analysis (KSEA) predicted activate kinase candidates as potential gilteritinib targets and identified ALK as the most likely regulated protein (Fig. 1e, Supplementary Figs. 3 and 4, and Supplementary Table 2).  Fig. 1 Identification of gilteritinib as an inhibitor of ALK-rearranged cancer cells. a Relative cell viability of parental (with IL-3), EML4-ALK wild-type (WT), EML4-ALK I1171N + F1174I, and EML4-ALK I1171N + L1198H Ba/F3 cells treated with 50 nM of the indicated inhibitors. Cell viability was analyzed using the CellTiter-Glo assay and calculated relative to the viability of dimethyl sulfoxide-treated Ba/F3 cells. b The suppression of phospho-ALK in I1171N + F1174I, I1171N + L1198H mutation-expressing Ba/F3 cells was evaluated using western blotting. Cells were treated with the indicated concentrations of gilteritinib for 3 h (n = 2). c The suppression of phospho-ALK and its downstream signals in H3122 parental cells and I1171N + F1174I compound mutation-expressing cells were evaluated using western blotting. […] N = 3 independent samples examined over three independent experiments and representative experiment data are presented as mean values ± SD. e Volcano plot displaying the −log10 (p-value) versus log2 (gilteritinib treatment/DMSO treatment) for all quantified phosphopeptides. The red diamond indicates phospho-ALK.

[4] = test system: H3122; assay: cells; parameters: CellTiter-Glo viability of fusion-positive human cancer cell lines; details: Homo sapiens, NCI-H3122, 72 h; read-out: Entrectinib IC50
[5] = test system: JFCR-028-3; assay: cells; parameters: CellTiter-Glo viability of fusion-positive human cancer cell lines; details: 72 h; read-out: Entrectinib IC50
[6] = test system: MCC-003; assay: cells; parameters: CellTiter-Glo viability of fusion-positive human cancer cell lines; details: 72 h; read-out: Entrectinib IC50
[7] = molecular target: T1, NTRK1 (Homo sapiens, UniProt P04629); assay: phospho-NTRK1 western blot in KM12 / Ba/F3 cells; format: cell-based
T1 construct: TPM3-NTRK1 fusion in cells
T1 sequence (P04629 416-796 limits assumed): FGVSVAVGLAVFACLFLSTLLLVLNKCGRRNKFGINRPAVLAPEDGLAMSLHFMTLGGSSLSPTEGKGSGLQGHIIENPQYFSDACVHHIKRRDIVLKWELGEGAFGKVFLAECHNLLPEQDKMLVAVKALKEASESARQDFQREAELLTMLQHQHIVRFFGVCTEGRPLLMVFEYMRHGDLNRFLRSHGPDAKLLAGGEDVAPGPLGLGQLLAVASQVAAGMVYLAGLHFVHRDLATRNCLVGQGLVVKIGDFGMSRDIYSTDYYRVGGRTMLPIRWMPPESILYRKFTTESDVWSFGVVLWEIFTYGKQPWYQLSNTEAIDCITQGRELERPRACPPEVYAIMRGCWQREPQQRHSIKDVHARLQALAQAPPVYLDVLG

[8] = molecular target: T2, EML4-ALK (Homo sapiens, UniProt Q9UM73, I1171N/F1174I); assay: phospho-ALK western blot in cells; format: cell-based
T2 construct: EML4-ALK fusion expressed in Ba/F3 and H3122 cells
T2 sequence (Q9UM73 1058-1620 I1171N/F1174I limits assumed): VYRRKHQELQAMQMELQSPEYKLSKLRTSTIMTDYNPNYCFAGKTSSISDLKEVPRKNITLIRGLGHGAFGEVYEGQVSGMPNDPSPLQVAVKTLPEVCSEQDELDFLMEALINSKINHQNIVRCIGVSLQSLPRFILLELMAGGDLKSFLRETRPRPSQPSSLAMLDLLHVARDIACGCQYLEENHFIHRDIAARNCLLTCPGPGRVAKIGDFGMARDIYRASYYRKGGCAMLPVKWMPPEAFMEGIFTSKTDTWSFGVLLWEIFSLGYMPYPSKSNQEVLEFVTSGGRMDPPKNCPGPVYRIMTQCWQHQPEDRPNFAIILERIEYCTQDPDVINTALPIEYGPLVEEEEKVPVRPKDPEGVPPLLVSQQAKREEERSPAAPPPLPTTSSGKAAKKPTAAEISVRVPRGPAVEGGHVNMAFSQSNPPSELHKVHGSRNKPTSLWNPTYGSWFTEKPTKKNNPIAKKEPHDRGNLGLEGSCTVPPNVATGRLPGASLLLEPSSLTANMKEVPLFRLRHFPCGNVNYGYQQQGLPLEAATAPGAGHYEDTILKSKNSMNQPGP

[9] = molecular target: T3, NTRK1 (Homo sapiens, UniProt P04629, G667C); assay: NTRK1 autophosphorylation western blot in Ba/F3 cells; format: cell-based
T3 construct: TPM3-NTRK1 fusion expressed in Ba/F3 cells
T3 sequence (P04629 405-796 G667C limits assumed): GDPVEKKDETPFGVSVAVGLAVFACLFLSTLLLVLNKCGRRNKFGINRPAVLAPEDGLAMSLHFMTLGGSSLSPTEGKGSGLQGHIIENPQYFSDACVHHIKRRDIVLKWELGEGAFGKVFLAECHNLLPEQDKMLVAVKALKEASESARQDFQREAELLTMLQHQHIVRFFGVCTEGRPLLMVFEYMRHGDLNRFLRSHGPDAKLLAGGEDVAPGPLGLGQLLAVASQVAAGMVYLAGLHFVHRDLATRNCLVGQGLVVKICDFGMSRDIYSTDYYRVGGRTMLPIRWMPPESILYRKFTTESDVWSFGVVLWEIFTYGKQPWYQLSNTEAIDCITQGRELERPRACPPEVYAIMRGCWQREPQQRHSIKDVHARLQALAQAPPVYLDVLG

In the case of C[C@H]1Oc2cc(cnc2N)-c2c(nn(C)c2C#N)CN(C)C(=O)c2ccc(F)cc21 [lorlatinib], the IC50 ([1]; read-out: Lorlatinib IC50) is reported as 2.3 ± 1 nM, the IC50 ([2]; read-out: Lorlatinib IC50) is reported as 138 ± 6 nM and the CC50 at 72 h [3] is reported as 8240 ± 2410 nM.

Molecule CN1CCN(c2ccc(C(=O)Nc3n[nH]c4ccc(Cc5cc(F)cc(F)c5)cc34)c(NC3CCOCC3)c2)CC1 [Entrectinib] has an IC50 [4] of 44 ± 12 nM, an IC50 [5] of 44 ± 17 nM and an IC50 ([1]; read-out: Entrectinib IC50) of 42 ± 8.5 nM. The IC50 ([2]; read-out: Entrectinib IC50) was 2.6 ± 0.28 nM, the IC50 [6] was 496 ± 147 nM and the CC50 at 72 h [3] was 481 ± 89 nM.

In the case of CCc1nc(C(N)=O)c(Nc2ccc(N3CCC(N4CCN(C)CC4)CC3)c(OC)c2)nc1NC1CCOCC1 [gilteritinib], the “phospho-NTRK1 western blot in KM12 / Ba/F3 cells” value [7] is reported as ~ 30 nM, the “phospho-ALK western blot in cells” value [8] is reported as under 30 nM and the “NTRK1 autophosphorylation western blot in Ba/F3 cells” value [9] is reported as “gilteritinib, but not entrectinib, inhibited the autophosphorylation of NTRK1 in TPM3-NTRK1 G667C-mutant Ba/F3 cells at a low concentration”. The CC50 at 72 h [3] was 177 ± 4.9 nM.
